This passage reports IC50 results from US10640498B2, “Compounds” (MISSION THERAPEUTICS LIMITED, priority 2016, dated 2020).

SMILES strings stand for the structures.

USP30, sequence (Q70CQ3 57-517): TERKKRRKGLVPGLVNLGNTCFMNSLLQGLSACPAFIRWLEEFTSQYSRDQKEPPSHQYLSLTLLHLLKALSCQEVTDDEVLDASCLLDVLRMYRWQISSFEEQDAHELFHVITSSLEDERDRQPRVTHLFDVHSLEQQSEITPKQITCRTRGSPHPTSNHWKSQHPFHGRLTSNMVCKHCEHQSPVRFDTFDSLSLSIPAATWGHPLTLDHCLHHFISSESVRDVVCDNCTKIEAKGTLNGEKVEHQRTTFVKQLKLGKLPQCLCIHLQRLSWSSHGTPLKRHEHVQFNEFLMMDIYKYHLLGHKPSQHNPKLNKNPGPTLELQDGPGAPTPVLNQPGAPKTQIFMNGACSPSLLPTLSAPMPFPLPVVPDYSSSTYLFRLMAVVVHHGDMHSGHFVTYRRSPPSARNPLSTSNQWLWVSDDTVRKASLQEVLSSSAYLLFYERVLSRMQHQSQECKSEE

For this test, the target named is USP30 (Homo sapiens (Human), UniProt Q70CQ3). Briefly: USP30 biochemical IC50 assay (fluorescence polarisation). Particulars: enzyme and compound incubated 30 min at room temp; TAMRA labelled peptide-ubiquitin substrate 50 nM; read after 2 hr incubation; read-out: IC50 range. The procedure:
USP30 Biochemical IC50 Assay
Dilution plates were prepared at 21 times the final concentration ([…] for a final concentration of 100 μM) in 50% DMSO in a 96-well polypropylene V-bottom plate (Greiner #651201). A typical 8-point dilution series to be 100, 30, 10, 3, 1, 0.3, 0.1, […].
Reactions were performed in duplicate in black 384 well plates (small volume, Greiner 784076) in a final reaction volume of 21 μl. Either 1 μl of 50% DMSO or diluted compound was added to the plate. USP30 was diluted in reaction buffer (40 mM Tris, pH 7.5, 0.005% Tween 20, 0.5 mg/ml BSA, 5 mM beta-mercaptoethanol) to the equivalent of 0.05 µl/well and 10 μl of diluted USP30 was added to the compound. Enzyme and compound were incubated for 30 min at room temp. Reactions were initiated by the addition of 50 nM of TAMRA labelled peptide linked to ubiquitin via an iso-peptide bond as fluorescence polarisation substrate. Reactions were read immediately after addition of substrate and following a 2 hr incubation at room temperature. Readings were performed on a Pherastar Plus (BMG Labtech). λ Excitation 540 nm; λ Emission 590 nm.
As to `N#CN1CCC(F)(C(=O)N2CCc3cc(-c4cnn(Cc5ccccc5)c4)ccc32)C1` (stereo not drawn) [Example 59, 3-(5-(1-Benzyl-1H-pyrazol-4-yl)indoline-1-carbonyl)-3-fluoropyrrolidine-1-carbonitrile], the IC50 was 1 to 10 µM.

For `N#CN1CC[C@@](F)(C(=O)N2CCc3cc(-c4ccccc4)ccc32)C1` [Example 53, (S)-3-Fluoro-3-(5-phenylindoline-1-carbonyl)pyrrolidine-1-carbonitrile], the IC50 is 0.1 to 1 µM.

Turning to `CC(C)Cn1nccc1-c1ccc2c(c1)CCN2C(=O)C1(F)CCN(C#N)C1` (stereo not drawn) [Example 58, 3-Fluoro-3-(5-(1-isobutyl-1H-pyrazol-5-yl)indoline-1-carbonyl)pyrrolidine-1-carbonitrile], the IC50 lay within 1 to 10 µM.

As for `N#CN1CCC(F)(C(=O)N2CCc3cc(-c4ccnn4Cc4ccccn4)ccc32)C1` (stereo not drawn) [Example 62, 3-Fluoro-3-(5-(1-(pyridin-2-ylmethyl)-1H-pyrazol-5-yl)indoline-1-carbonyl)pyrrolidine-1-carbonitrile], the IC50 was in the range of 1 to 10 µM.

With `C[C@H]1CN(C#N)C[C@@H]1C(=O)N1CCc2cc(-c3ccccc3)ccc21` [Example 20, (3R,4R)-3-Methyl-4-(5-phenylindoline-1-carbonyl)pyrrolidine-1-carbonitrile], the IC50 was in the range of 1 to 10 µM.

`CNC(=O)c1cc(-c2ccccc2)c2c(c1)N(C(=O)[C@@H]1CCN(C#N)C1)CC2` [Example 69, (R)-1-(1-Cyanopyrrolidine-3-carbonyl)-N-methyl-4-phenylindoline-6-carboxamide]: the IC50 lay within 1 to 10 µM.

On to `Cc1ccc(F)c(-c2ccc3c(c2)CCN3C(=O)C2(F)CCN(C#N)C2)c1` (stereo not drawn) [Example 40, 3-Fluoro-3-(5-(2-fluoro-5-methylphenyl)indoline-1-carbonyl)pyrrolidine-1-carbonitrile], for which the IC50 is less than 0.1 µM.

Consider `N#CN1CCC(F)(C(=O)N2CCc3cc(-c4ccccc4)ccc32)C1` (stereo not drawn) [Example 14, 3-Fluoro-3-(5-phenylindoline-1-carbonyl)pyrrolidine-1-carbonitrile], for which the IC50 was in the range of 0.1 to 1 µM.

In the case of `Cn1ncc2cc(-c3ccc4c(c3)CCN4C(=O)C3(F)CCN(C#N)C3)ccc21` (stereo not drawn) [Example 39, 3-Fluoro-3-(5-(1-methyl-1H-indazol-5-yl)indoline-1-carbonyl)pyrrolidine-1-carbonitrile], the IC50 was 0.1 to 1 µM.

As for `CN(Cc1nc2ccccc2s1)C(=O)C1CCN(C#N)C1` (stereo not drawn) [Example 45, N-(Benzo[d]thiazol-2-ylmethyl)-1-cyano-N-methylpyrrolidine-3-carboxamide], the IC50 fell in the range of 1 to 10 µM.

In the case of `Cn1cc(-c2cc3c(cc2C#N)N(C(=O)[C@H]2CCN(C#N)C2)CC3)cn1` [Example 29, (S)-1-(1-Cyanopyrrolidine-3-carbonyl)-5-(1-methyl-1H-pyrazol-4-yl)indoline-6-carbonitrile], the IC50 lay within 1 to 10 µM.

On to `N#CN1CC[C@](F)(C(=O)N2CCc3cc(-c4cccc(Cl)c4)cnc32)C1` [Example 56, (R)-3-(5-(3-Chlorophenyl)-2,3-dihydro-1H-pyrrolo[2,3-b]pyridine-1-carbonyl)-3-fluoropyrrolidine-1-carbonitrile], for which the IC50 is less than 0.1 µM.

`Cn1nccc1-c1ccc2c(c1)CCN2C(=O)C1(F)CCN(C#N)C1` (stereo not drawn) [Example 36, 3-Fluoro-3-(5-(1-methyl-1H-pyrazol-5-yl)indoline-1-carbonyl)pyrrolidine-1-carbonitrile]: the half-inhibitory concentration (IC50) fell in the range of 1 to 10 µM.

On to `N#CN1CC[C@@H](C(=O)N2CCc3cc(-c4cccc5[nH]ncc45)cnc32)C1` [Example 61, (R)-3-(5-(1H-Indazol-4-yl)-2,3-dihydro-1H-pyrrolo[2,3-b]pyridine-1-carbonyl)-pyrrolidine-1-carbonitrile], for which the IC50 was in the range of 1 to 10 µM.

As to `N#CN1C[C@H]2CN(c3ncc(-c4ccccc4)s3)C(=O)[C@H]2C1` (relative stereo) [Example 48, (cis)-4-Oxo-5-(5-phenylthiazol-2-yl)hexahydropyrrolo[3,4-c]pyrrole-2(1H)-carbonitrile], the IC50 was 1 to 10 µM.

With `N#CN1CC[C@@H](C(=O)N2CCOc3cc(-n4cccn4)ccc32)C1` [Example 30, (R)-3-(7-(1H-Pyrazol-1-yl)-3,4-dihydro-2H-benzo[b][1,4]oxazine-4-carbonyl)-pyrrolidine-1-carbonitrile], the IC50 lay within 1 to 10 µM.

As to `N#CN1CCC(F)(C(=O)N2CCc3cc(-c4ccnn4Cc4ccccc4)ccc32)C1` (stereo not drawn) [Example 35, 3-(5-(1-Benzyl-1H-pyrazol-5-yl)indoline-1-carbonyl)-3-fluoropyrrolidine-1-carbonitrile], the IC50 lay in the range of 1 to 10 µM.

Turning to `Cc1ccc2[nH]ncc2c1-c1ccc2c(c1)CCN2C(=O)C1(F)CCN(C#N)C1` (stereo not drawn) [Example 41, 3-Fluoro-3-(5-(5-methyl-1H-indazol-4-yl)indoline-1-carbonyl)pyrrolidine-1-carbonitrile], the half-inhibitory concentration (IC50) lay in the range of 0.1 to 1 µM.

Consider `CN(C(=O)[C@@H]1CCN(C#N)C1)c1cc(-c2ccccc2)cnn1` [Example 32, (R)-1-Cyano-N-methyl-N-(5-phenylpyridazin-3-yl)pyrrolidine-3-carboxamide], for which the IC50 lay within 1 to 10 µM.

With `N#CN1CCC(C(=O)N2CCc3nc(-c4ccccc4)ccc32)C1` (stereo not drawn) [Example 51, 3-(5-Phenyl-2,3-dihydro-1H-pyrrolo[3,2-b]pyridine-1-carbonyl)pyrrolidine-1-carbonitrile], the IC50 fell in the range of 1 to 10 µM.

`N#CN1CCC(F)(C(=O)N2CCc3cc(-c4ccnn4Cc4ccccc4Cl)ccc32)C1` (stereo not drawn) [Example 64, 3-(5-(1-(2-Chlorobenzyl)-1H-pyrazol-5-yl)indoline-1-carbonyl)-3-fluoropyrrolidine-1-carbonitrile]: the IC50 lay in the range of 1 to 10 µM.

Take `N#CN1CC[C@H](C(=O)N2CCCc3cc(-c4ccccc4)ccc32)C1` [Example 23, (S)-3-(6-Phenyl-1,2,3,4-tetrahydroquinoline-1-carbonyl)pyrrolidine-1-carbonitrile]: the concentration for half-maximal inhibition (IC50) lay within 0.1 to 1 µM.

Consider `CCc1cccc(-c2cc(C(=O)NC)cc3c2CCN3C(=O)[C@@H]2CCN(C#N)C2)c1` [Example 68, (R)-1-(1-Cyanopyrrolidine-3-carbonyl)-4-(3-ethylphenyl)-N-methylindoline-6-carboxamide], for which the IC50 fell in the range of 0.1 to 1 µM.

For `N#CN1CCC(F)(C(=O)N2CCc3cc(-c4ccnn4Cc4cccc(Cl)c4)ccc32)C1` (stereo not drawn) [Example 65, 3-(5-(1-(3-Chlorobenzyl)-1H-pyrazol-5-yl)indoline-1-carbonyl)-3-fluoropyrrolidine-1-carbonitrile], the IC50 was 0.1 to 1 µM.

In the case of `CN(C(=O)[C@H]1CCN(C#N)C1)c1cc(-c2ccccc2)ccn1` [Example 4, (S)-1-Cyano-N-methyl-N-(4-phenylpyridin-2-yl)pyrrolidine-3-carboxamide], the IC50 was 1 to 10 µM.

In the case of `N#CN1CC[C@H](C(=O)N2CCc3c(-c4cccc(Cl)c4)ccnc32)C1` [Example 28, (S)-3-(4-(3-Chlorophenyl)-2,3-dihydro-1H-pyrrolo[2,3-b]pyridine-1-carbonyl)pyrrolidine-1-carbonitrile], the half-inhibitory concentration (IC50) is 1 to 10 µM.

For `CN(Cc1csc(-c2ccccc2)n1)C(=O)C1CCN(C#N)C1` (stereo not drawn) [Example 47, 1-Cyano-N-methyl-N-((2-phenylthiazol-4-yl)methyl)pyrrolidine-3-carboxamide], the IC50 lay within 0.1 to 1 µM.

Regarding `C[C@@H]1CN(C#N)C[C@H]1C(=O)N1CCc2cc(-c3ccccc3)ccc21` [Example 19, (3S,4S)-3-Methyl-4-(5-phenylindoline-1-carbonyl)pyrrolidine-1-carbonitrile], the IC50 lay in the range of 0.1 to 1 µM.

On to `CCN(C(=O)C1CCN(C#N)C1)c1ncc(-c2ccccc2)s1` (stereo not drawn) [Example 2, 1-cyano-N-ethyl-N-(5-phenylthiazol-2-yl)pyrrolidine-3-carboxamide], for which the IC50 lay within 1 to 10 µM.

As to `COc1ccc(-c2ccc3c(c2)CCN3C(=O)C2(F)CCN(C#N)C2)cn1` (stereo not drawn) [Example 43, 3-Fluoro-3-(5-(6-methoxypyridin-3-yl)indoline-1-carbonyl)pyrrolidine-1-carbonitrile], the IC50 lay within 0.1 to 1 µM.

As for `CN(Cc1cc(-c2ccccc2)no1)C(=O)C1CCN(C#N)C1` (stereo not drawn) [Example 46, 1-Cyano-N-methyl-N-((3-phenylisoxazol-5-yl)methyl)pyrrolidine-3-carboxamide], the IC50 lay in the range of 1 to 10 µM.

On to `CN(C(=O)C1(F)CCN(C#N)C1)c1ncc(-c2ccccc2)s1` (stereo not drawn) [Example 8, 1-Cyano-3-fluoro-N-methyl-N-(5-phenylthiazol-2-yl)pyrrolidine-3-carboxamide], for which the IC50 is 0.1 to 1 µM.

Consider `CN(C(=O)[C@H]1CCN(C#N)C1)c1cccc(-c2ccccc2)n1` [Example 5, (S)-1-Cyano-N-methyl-N-(6-phenylpyridin-2-yl)pyrrolidine-3-carboxamide], for which the IC50 lay in the range of 1 to 10 µM.

`CN(C(=O)C1CCN(C#N)C1)c1ccc(-c2ccccc2)cn1` (stereo in doubt) [Example 31, (S)-1-Cyano-N-methyl-N-(5-phenylpyridin-2-yl)pyrrolidine-3-carboxamide]: the IC50 was in the range of 1 to 10 µM.

As for `N#CN1CCC(F)(C(=O)N2CCc3ccc(-c4ccccc4)nc32)C1` (stereo not drawn) [Example 16, 3-Fluoro-3-(6-phenyl-2,3-dihydro-1-H-pyrrolo[2,3-b]pyridine-1-carbonyl)pyrrolidine-1-carbonitrile], the IC50 lay in the range of 0.1 to 1 µM.

In the case of `CCN(C(=O)[C@@H]1CCN(C#N)C1)c1ccc(-c2ccc(C#N)cc2)cn1` [Example 44, (R)-1-Cyano-N-(5-(4-cyanophenyl)pyridin-2-yl)-N-ethylpyrrolidine-3-carboxamide], the concentration for half-maximal inhibition (IC50) is 1 to 10 µM.

A word on the IC50: it is the concentration at which inhibition is half-maximal.
